# From patent US20150336881A1, “AMIDE COMPOUND AND USE THEREOF FOR PEST CONTROL” (Sumitomo Chemical Company, Limited, priority 2012, published 2015)
# System: Adoxophyes orana fasciata
# Test: Test Example 7: sprayed apple tree, Adoxophyes orana fasciata larvae released
# Conditions: in vivo
# Experimental: (§1) The formulations of Compounds of Present Invention 1 to 5, 8 to 14, 18, 19, 25, 26, 54, 55, 60, 68 to 74, 76 to 78, 85, 86, 88 and 90 and Intermediate Compounds M6-8 to M6-13 as obtained in Formulation Example 5 were diluted with water, so as to have a concentration of the active ingredient of 500 ppm, to prepare a diluted liquid for test.
# On the other hand, an apple tree was planted in a plastic cup, and grown until the seventh-eighth true leaf was spread. To the apple tree was sprayed in an amount of 20 mL/cup of the diluted liquid for test. After the drug solution was dried, 60 first-instar Adoxophyes orana fasciata were released, and the plastic cup the bottom of which was cut off and on which a filter paper was put was upside-down and covered. After 7 days, the number of surviving insects was counted, and the mortality was calculated according to the following equation:
# Mortality (%)=(Number of dead insects/Number of tested insects)×100.
row,SMILES,mortality [%]
1,"CCSc1cc(C(F)(F)F)ccc1C(=O)Nc1ccc(C(F)(F)F)cc1 [Intermediate Compound M6-1, 2-ethylsulfanyl-4-trifluoromethyl-N-(4-trifluoromethyl-phenyl)-benzamide]",100
2,CCS(=O)(=O)c1cc(C(F)(F)F)ccc1C(=O)N(C)c1ccc(C(F)(F)C(F)(F)F)cc1 [compound 10],100
3,CCSc1ccccc1C(=O)N(C)c1ccc(C(F)(F)C(F)(F)F)cc1 [compound 18],100
4,CCSc1ccccc1C(=O)N(C)c1ccc(SC(F)(F)F)cc1 [compound 19],100
5,CCS(=O)(=O)c1ccccc1C(=O)N(C)c1ccc(C(F)(F)C(F)(F)F)cc1 [compound 25],100
6,CCS(=O)(=O)c1ccccc1C(=O)N(C)c1ccc(SC(F)(F)F)cc1 [compound 26],100
7,CCSc1cc(C(F)(F)F)ccc1C(=O)N(C)c1ccc(OC(F)(F)F)c(Br)c1 [compound 60],100
8,CCSc1cc(C(F)(F)F)ccc1C(=O)N(C)c1ccc(C(F)(F)F)c(Cl)c1 [compound 68],100

# System: Musca domestica
# Test: Test Example 8: treated filter paper with sucrose bait, Musca domestica
# Format: in vivo
# Conditions: 0.7 ml on filter paper, female imagoes of Musca domestica, after 24 hours
# Experimental: Each of formulations of Compounds of Present Invention 1 to 5, 10, 18, 19, 25, 26, 60 and 68 and Intermediate Compound M6-1 as obtained in Formulation Example 5 was diluted with water, so as to have a concentration of the active ingredient of 500 ppm, to prepare a diluted liquid for test.
# (§2) A filter paper having a diameter of 5.5 cm was spread on the bottom of a polyethylene cup having the same diameter and 0.7 ml of the diluted liquid for test was added dropwise onto the filter paper, and 30 mg of sucrose was uniformly placed as bait. Into the polyethylene cup, 10 female imagoes of Musca domestica were released, and the cup was sealed with a lid. After 24 hours, the life and death of Musca domestica was examined, and the mortality was calculated.
row,SMILES,mortality at 500 ppm [%]
1,"CCSc1cc(C(F)(F)F)ccc1C(=O)Nc1ccc(C(F)(F)F)cc1 [Intermediate Compound M6-1, 2-ethylsulfanyl-4-trifluoromethyl-N-(4-trifluoromethyl-phenyl)-benzamide]",100

# System: Blattella germanica
# Test: Test Example 9: treated filter paper with sucrose bait, Blattella germanica
# Format: in vivo
# Conditions: 500 ppm, 0.7 ml on filter paper, male imagoes of Blattella germanica, after 6 days
# Experimental: The formulations of Compounds of Present Invention 3, 10 and 11 as obtained in Formulation Example 5 were diluted with water, so as to have a concentration of the active ingredient of 500 ppm, to prepare a diluted liquid for test.
# as §2, with “2 male” for “10 female”, “Blattella germanica” for “Musca domestica”, “6 days,” for “24 hours,”
row,SMILES,mortality [%]
1,CCS(=O)(=O)c1cc(C(F)(F)F)ccc1C(=O)N(C)c1ccc(C(F)(F)C(F)(F)F)cc1 [compound 10],100
2,CCS(=O)(=O)c1cc(C(F)(F)F)ccc1C(=O)N(C)c1ccc(SC(F)(F)F)cc1 [compound 11],100

# System: Culex pipiens pallens
# Test: Test Example 10: Culex pipiens pallens larvae in treated water
# Format: in vivo
# Conditions: 24 h; active ingredient concentration 3.5 ppm in water, last-instar larvae of Culex pipiens pallens, one day later
# Experimental: as §1, with “11, 13,” for “14,”, “44, 53 to” for “54,”, “55, 59,” for “55,”, “78, 86” for “76”, “to” for “to 78, 85, 86,”, “M6-3, M6-4, M6-11, M6-12 and M6-23” for “M6-8 to M6-13”
# 0.7 ml of the diluted liquid for test was added to 100 ml of ion-exchanged water (active ingredient concentration: 3.5 ppm). 20 last-instar larvae of Culex pipiens pallens were released into the solution. One day later, the life and death of the Culex pipiens pallens was examined, and the mortality of the pest was calculated.
row,SMILES,mortality at 3.5 ppm [%]
1,"CCSc1cc(C(F)(F)F)ccc1C(=O)Nc1ccc(C(F)(F)C(F)(F)F)cc1 [Intermediate Compound M6-3, 2-ethylsulfanyl-N-(4-pentafluoroethyl-phenyl)-4-trifluoromethyl-benzamide]",≥ 95
2,"CCSc1cc(C(F)(F)F)ccc1C(=O)Nc1ccc(SC(F)(F)F)cc1 [Intermediate Compound M6-4, 2-ethylsulfanyl-N-(4-trifluoromethylsulfanyl-phenyl)-4-trifluoromethyl-benzamide]",≥ 95
